Four compounds from patent US20170246146A1, “POLYPHENOL FOR WOUND HEALING” (IC-MedTech Corporation, priority 2012, published 2017) can be followed below.

One series has as its system Keratinocytes. Briefly: Scratch wound assay, keratinocytes. Format: cell-based. As to conditions: compared with fibroblast data. How it is done:
(§1) A scratch wound assay was employed to evaluate the in vitro wound healing capacity of APATONE® and TOLECINE®. For the scratch-wound assay, cells were seeded on 6-well culture plates. At 80% cell confluence, a scratch-wound was produced using a sterile pipette tip and the size of the gap was measured and set to 100%. The cells were treated with test agents at various concentrations and the closing of the scratch-wound was measured at 24, 48, and 72 hrs. This experiment was performed three times for each cell line. Human foreskin fibroblasts were employed to optimize the assay because of the involvement of fibroblasts in wound healing. Human skin fibroblasts were scratched and then sham treated or treated with VC alone or APATONE® for 24 hrs.
Keratinocytes were grown to 90% confluence and then scratched to generate a wound. Cells were then treated with sham (fresh media) or a single dose of APATONE® at 75 μM sodium ascorbate and 0.75 μM menadione sodium bisulfate. […] Without being limited by any theory, the decreased closure of APATONE® during the second 24 hrs probably reflects metabolism of the vitamins by the keratinocytes.

Series [1] has as its system full thickness excision wounds. Briefly: Wound healing studies in mice. Type of series: in vivo, Balbc/J male mice. To be noted: topical, days 0-5, by day 5, glycerin 27%. How it is done:
Sixty, 5-6 week old Balbc/J male mice were ear notched for identification and housed in individually and positively ventilated polycarbonate cages with HEPA filtered air. Bed-o-cob corn cob bedding were used and cages were changed every two weeks. The animal room was lighted entirely with artificial fluorescent lighting, with a controlled 12 hr light/dark cycle. The normal temperature and relative humidity ranges in the animal rooms were 22±4° C. and 50±15%, respectively. The animal rooms were set to have 15 air exchanges per hour. Filtered tap water, acidified to a pH of 2.8 to 3.1, and rodent chow were provided ad libitum.
Following a 5 to 7 days acclimation, mice were randomized by body weight into 6 cohorts of 10 mice each. On study day 0 (D0), mice were anesthetized and two full thickness excision wounds (˜6 mm) were made on the dorsum (backs) of mice. One of the wounds was covered using a semi-occlusive polyurethane dressing (TEGADERM™). […]
Wound measurements were made on days 5, 7, 9, and 11. […] Traces were captured by scan and analyzed by a computer imaging software. […]
After being wounded, the mice had saddles applied around the wounds to prevent cross contamination and wound closure due to constriction. […] At day 5, test agents were removed and changes in wound area were measured in an effort to gauge the persistence of the compounds in the wound site.

For series [2], the system named is MatTek EPIDERMFT™ (Full Thickness skin) tissue. Briefly: MatTek EPIDERM MTT Viability Assay (dermal irritation potential). Format: cell-based, Human. How it is done:
The MatTek EPIDERM™ MTT Viability Assay was employed as a quantitative method for assessing the dermal irritation potential of TOLECINE®. MatTek EPIDERMFT™ (Full Thickness skin) tissue samples were treated with TOLECINE® (neat) or a positive control (1% Triton X-100) for various exposure times ranging from 1 to 24 hrs. Negative controls (undosed tissues) were tested for 8 hrs only. Following treatment, the viability of the tissues were determined using MTT uptake and conversion and the absorbance of each sample was measured at 540 nm using a reference wavelength of 690 nm. The viability was then expressed as a percent of control values. The mean percent of each time point was used to calculate an ET50, which represented the time at which the EPIDERMFT™ tissue viability was reduced 50% compared to the control tissue.

In series [3] the test system is Human foreskin fibroblasts. Briefly: Scratch wound assay, fibroblasts. Format: cell-based. As to the method:
as §1

In the next series the test system is intracellular peroxides. The series can be described thus: Pro-oxidant production (DCFH-DA fluorescence). Type of series: cell-based. As to the method: Production of intracellular peroxides was monitored spectrofluorometrically using dichlorofluorescein diacetate (DCFH-DA) as a fluorescent dye. Cell suspensions were treated with DCFH-DA at a final concentration of 100 μM in the medium. Oxidation of DCFH by peroxides yields dichlorofluorescein (DCF). Fluorescence was monitored at the excitation and emission wavelengths of 485 and 530 nm, respectively, using a fluorescence plate reader (50 cycles per 20 s at 37° C.) (Biotek Synergy HT®). Hydrogen peroxide (μM) was determined based on fluorescence generated from a hydrogen peroxide standard curve.
Apatone production of hydrogen peroxide was determined based a standard curve. Serial dilutions of Apatone (1000/10, 500/5, 250/2.5, 125/1.25, and 62.5/0.625) were then added to cells pre-treated with DCF-DA and read over a series of time points (1, 3, 5, and 24 hrs).

The next series relates to VEGF. The series can be described thus: VEGF production (VEGF Quantiglo Immunoassay). Type of series: cell-based, Human. As to conditions: for VEGF: keratinocytes. How it is done: Human adult keratinocytes were plated into a 6 well plate and allowed to grow to >80% confluency. The back of a rubber scraper was then used to scratch each plate, creating a uniform linear wound across each well. Cells were then rinsed with media to remove non-adherent cells and drugs at indicated concentrations were added. Media aliquots were taken at 1, 3, 6, or 16 hrs and spun down at 6,250 rpm for 10 minutes. Supernatants were then collected and stored at −4 ° C. until assayed using the VEGF Quantiglo Immunoassay (Research and Development Systems) according to kit instructions.

In the next series the test system is prostaglandin E2 (PGE-2). Briefly: PGE-2 ELISA in EPIDERMFT assay medium. Format: cell-based, Human. As to conditions: 24 hr exposure; negative control 6.1 ng/mL. How it is done: (§2) Enzyme-linked immunosorbent assay (ELISA) kits were used to test for the presence of the cytokine interleukin-1 alpha (IL-1α) and the inflammatory mediator prostaglandin E2 (PGE-2) in the assay medium. Approximately 1 mL of the media from beneath the tissue millicells were sampled at the end of dosing and incubation. The assays were conducted according to the manufacturer's directions on both undiluted samples and samples diluted to 10% in order to obtain the detectable protein range of the ELISA kits. Protein standards were run with both ELISAs in order to derive standard curves.
A general note: In an ELISA, binding on a coated surface is turned into a signal by an enzyme label.

The test system of series [4] is interleukin-1 alpha (IL-1α). The series can be described thus: IL-1α ELISA in EPIDERMFT assay medium. Type of series: cell-based, Human. To be noted: 24 hr exposure; negative control 8.156 pg/mL. How it is done: as §2

Turning to `Oc1ccc(C#Cc2ccc(O)cc2)cc1` [TOLECINE®, 4,4′-(ethyne-1,2-diyl)diphenol], in the series with Keratinocytes, the “wound closure in keratinocytes” value is recorded as “closely approximated that observed with fibroblasts”. Moreover, the wound closure is 93% in series [1] (2.5% in glycerin); 87% in series [1] (5% TOLECINE® in glycerin); 85% in series [3] (2.5 μM, 24 hrs, sham 30%); 100% in series [3] (2.5 μM, 48 hrs, sham 80%); 85% in series [3] (5 μM, 24 hrs, sham 30%); 100% in series [3] (5 μM, 48 hrs, sham 80%). The same compound had a wound closure in series [3] (10 μM, 24 hrs, sham 30%) of 100%. Further, the “ET50 (time at which tissue viability was reduced 50% compared to control)” value in series [2] (human) is listed as “greater than 24 hrs”. Further, the “hydrogen peroxide production, dose dependence” value in the series with intracellular peroxides (FIGS. 4-6) was “dose dependent”. In the series on intracellular peroxides (keratinocytes exposed for 5 hrs or more), the “hydrogen peroxide production over time” value is on record as “continued to increase”. For the same compound, the “VEGF” value was found to be 32.6 pg/mL in the series with VEGF (10 μM, 1 hr, sham 12.4); 29.4 pg/mL in the series with VEGF (10 μM, 3 hrs, sham 13.2); 120 pg/mL in the series with VEGF (10 μM, 6 hrs, sham 42.0); 120.7 pg/mL in the series with VEGF (10 μM, 6 hrs, sham 42.0, listed as TOL); 237 pg/mL in the series on VEGF (10 μM, 16 hrs, sham 67.4); 237.2 pg/mL in the series with VEGF (10 μM, 16 hrs, sham 67.4, listed as TOL). Further, the “VEGF” value is recorded as 121.2 pg/mL in the series with VEGF (20 μM, 1 hr, sham 12.4); 148.7 pg/mL in the series on VEGF (20 μM, 3 hrs, sham 13.2); 225 pg/mL with VEGF (20 μM, 6 hrs, sham 42.0); 225.9 pg/mL in the series on VEGF (20 μM, 6 hrs, sham 42.0, listed as TOL); 457 pg/mL in the series on VEGF (20 μM, 16 hrs, sham 67.4); 457.2 pg/mL in the series on VEGF (20 μM, 16 hrs, sham 67.4, listed as TOL). The “VEGF production, early time course” value in the series on VEGF (10 μM, first 3 hrs) is “lag in VEGF production”. In addition, the PGE-2 levels in the series with prostaglandin E2 (PGE-2) is listed as 9.5 ng/mL.
Regarding `O=C1O[C@H]([C@@H](O)CO)C(O)=C1O` [VC, L-ascorbic acid, reference compound], the “width of the scratch” value in series [3] (2,000 μM VC, at 24 hrs, 28.0 μm immediately after scratching (sham 15.8 to 8.3 μm)) is listed as 16.9 μm. Also, the “activity in scratch wound assay” value in series [3] (VC alone at 75 μM) was “not active”. For the same compound, the wound closed result in series [3] (fibroblasts, after 24 hrs, FIG. 1 (VC 2000 μM), sham about 57%) is recorded as “about 43%”.
Regarding `Oc1ccc(C=Cc2cc(O)cc(O)c2)cc1` [resveratrol, reference compound], the “VEGF production compared with TOLECINE®” value in the series on VEGF (20 μM each) was “less than the VEGF production by TOLECINE® at 20 μM”. In addition, the “VEGF” value stood at 139.0 pg/mL with VEGF (resveratrol 20 μM, 1 hr, sham 12.4); 166.7 pg/mL in the series with VEGF (resveratrol 20 μM, 3 hrs, sham 13.2); 196 pg/mL in the series with VEGF (resveratrol 20 μM, 6 hrs, sham 42.0); 196.0 pg/mL with VEGF (resveratrol 20 μM, 6 hrs, sham 42.0, listed as RES); 274 pg/mL in the series on VEGF (resveratrol 20 μM, 16 hrs, sham 67.4); 274.1 pg/mL with VEGF (resveratrol 20 μM, 16 hrs, sham 67.4, listed as RES).
With “Triton X-100 [positive control, reference compound]”, the IL-1α levels in series [4] came out at 168 pg/mL. The “ET50 (time at which tissue viability was reduced 50% compared to control)” value in series [2] (TOLECINE® neat, positive control 1% Triton X-100, exposure 1 to 24 hrs, MTT) was found to be 10.4 h. In the series on prostaglandin E2 (PGE-2), this compound displayed a PGE-2 levels of 1211 ng/mL.
